# Values of other authors, collected in Sander's compilation of Henry's law constants (doi:10.1021/je049693f).
# Values joined by “and” are separate entries in the source; they are usually repeats but may differ in a detail not shown here. Equal entries are not always repeated.
# Test: Henry solubility constant Hcp at 298.15 K (mol/(m3 Pa))
# Details: reference: Shen and Wania (2005); cited value
row,SMILES,Henry solubility constant Hcp
1,ClC1=C(Cl)[C@]2(Cl)[C@@H]3[C@H]4C[C@H]([C@@H]5O[C@H]45)[C@@H]3[C@@]1(Cl)C2(Cl)Cl [endrin],1.6 and 0.91
2,ClC1=C(Cl)C2(Cl)C3C(Cl)C=CC3C1(Cl)C2(Cl)Cl (stereo not given) [heptachlor],0.033 and 0.026
3,"Clc1ccc(C(c2ccc(Cl)cc2)C(Cl)(Cl)Cl)cc1 [1,1,1-trichloro-2,2-bis-(4-chlorophenyl)-ethane]",0.91
4,ClC1=C(Cl)[C@]2(Cl)[C@H]3[C@H]([C@@H]4C=C[C@H]3C4)[C@@]1(Cl)C2(Cl)Cl [aldrin],0.067 and 0.043
5,ClC1=C(Cl)[C@]2(Cl)[C@@H]3[C@@H](Cl)[C@@H](Cl)C[C@@H]3[C@@]1(Cl)C2(Cl)Cl [cis-chlordane],0.17 and 0.18
6,"Clc1ccc(C(c2ccc(Cl)cc2)C(Cl)Cl)cc1 [1,1-dichloro-2,2-bis-(4-chlorophenyl)-ethane]",1.5 and 2
7,ClC1=C(Cl)C2(Cl)C3C4OC4C(Cl)C3C1(Cl)C2(Cl)Cl (stereo not given) [heptachlorepoxide],0.48 and 0.59
8,"ClC(Cl)=C(c1ccc(Cl)cc1)c1ccc(Cl)cc1 [1,1-dichloro-2,2-bis-(4-chlorophenyl)-ethene]",0.24
9,ClC1=C(Cl)[C@]2(Cl)[C@@H]3[C@@H]4C[C@@H]([C@H]5O[C@@H]45)[C@@H]3[C@@]1(Cl)C2(Cl)Cl [dieldrin],1 and 0.91
10,ClC1=C(Cl)[C@]2(Cl)[C@H]3[C@H](Cl)[C@@H](Cl)C[C@H]3[C@@]1(Cl)C2(Cl)Cl [trans-chlordane],0.17 and 0.15
